Here are results for eleven compounds from ChEMBL document CHEMBL1201862, “PubChem BioAssay data set” (2004).

What all share (experiment): NCI anticancer screen, dose series, 48 h
In assay [1] the test system is A498.
For assay [2], the system named is A549.
The test system of assay [3] is BT-549.
Assay [4] concerns EKVX.
For assay [5], the system named is HCC 2998.
Assay [6] concerns HOP-92.
Assay [7] relates to HT-29.
Assay [8] deals with Hs-578T.
Assay [9] concerns KM12.
Assay [10] concerns LOX IMVI.
Assay [11] has as its system MOLT-4.
Assay [12] has as its system NCI/ADR-RES.
In assay [13] the test system is PC-3.
For assay [14], the system named is SF-268.
Assay [15] has as its system SF-539.
For assay [16], the system named is SK-MEL-28.
The subject of assay [17] is SNB-75.
In assay [18] the test system is UACC-62.
In assay [19] the test system is HL-60.

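Exposure lasted 48 hours, with cells grown in 96-well plates and compounds tested at five concentrations. GI50 is the concentration that inhibits growth by half.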 The source made the active and inactive calls. Rule as the data show it: active = GI50 up to about 1.1 µM and inactive = higher.

In the case of `Oc1c2cccc1Cc1cccc3c1OCCOCCOCCOCCOc1c(cccc1Cc1cccc(c1O)C3)C2`, the GI50 in assay [1], in assay [2], in assay [3], in assay [4], in assay [5] and in assay [6] was > 100 µM (inactive) throughout. For the same compound, the GI50 is 54.3 µM (inactive) in assay [7]; 18.4 µM (inactive) in assay [8]; > 100 µM (inactive) in assay [9]; > 100 µM (inactive) in assay [10]; > 100 µM (inactive) in [11]; 39.3 µM (inactive) in assay [12]. Also, the GI50 in [13] was 17.1 µM (inactive); in [14] it was > 100 µM (inactive); in [15], 94.6 µM (inactive); in assay [16], > 100 µM (inactive); in [17], 22 µM (inactive); in assay [18] it was 26.7 µM (inactive).

In the case of `CSC(SC)=C(C#N)C(=O)Nc1ccc(Cl)cc1`, the GI50 in assay [1] was 10.6 µM (inactive); in assay [2], 31.3 µM (inactive); in [3] it was 46.7 µM (inactive); in assay [4], 44.7 µM (inactive); in assay [5], > 100 µM (inactive); in assay [19], 23.9 µM (inactive). Also, the GI50 in assay [7] is 35.6 µM (inactive); in assay [8], > 100 µM (inactive); in assay [9], 68.2 µM (inactive); in assay [10], 23.1 µM (inactive); in assay [11], 27.7 µM (inactive); in assay [12], 44.4 µM (inactive). The GI50 is 54.2 µM (inactive) in assay [13]; 61.7 µM (inactive) in [14]; 27.7 µM (inactive) in assay [15]; > 100 µM (inactive) in [16]; 95.3 µM (inactive) in [17]; 46 µM (inactive) in [18].

In the case of `COC(=O)C1Cc2ccc3c(c2C1=O)CCCC3` (stereo not drawn), the GI50 was > 100 µM (inactive) in [1]; > 100 µM (inactive) in assay [2]; > 100 µM (inactive) in assay [3]; 70.5 µM (inactive) in [4]; > 100 µM (inactive) in assay [5]; > 100 µM (inactive) in [19]. In addition, the GI50 in assay [7] is > 100 µM (inactive); in [8], > 100 µM (inactive); in [9], > 100 µM (inactive); in assay [10], 38.1 µM (inactive); in assay [11], 21.3 µM (inactive); in assay [12] it was > 100 µM (inactive). The GI50 is 26.2 µM (inactive) in assay [13]; > 100 µM (inactive) in [14]; > 100 µM (inactive) in [15]; > 100 µM (inactive) in assay [16]; 89.7 µM (inactive) in assay [17]; 81.1 µM (inactive) in assay [18].

As to `NC(=O)C(=CNC(N)=S)C(N)=O`, the GI50 in [1], in assay [2], in assay [3], in [4], in assay [5] and in [19] was > 100 µM (inactive) throughout. The GI50 in [7], in [8], in assay [9], in assay [10], in assay [11] and in [12] was > 100 µM (inactive) throughout. The GI50 in assay [13], in assay [14], in assay [15], in assay [16], in [17] and in assay [18] was > 100 µM (inactive) in each case.

For `COC(=O)c1c(O)ccc2c1c1c(n2Cc2ccccc2OC)C(=O)c2ccccc2C1`, the GI50 in assay [1] was > 100 µM (inactive); in assay [2] it was 49.1 µM (inactive); in assay [3], > 100 µM (inactive); in assay [19], > 100 µM (inactive); in assay [7], 36.5 µM (inactive); in assay [8], > 100 µM (inactive). Besides, the GI50 in assay [9] is 93.5 µM (inactive); in assay [10], 47.2 µM (inactive); in assay [11], 48.3 µM (inactive); in assay [12], 29.3 µM (inactive); in [13] it was 24 µM (inactive); in [14], 40.5 µM (inactive). Moreover, the GI50 in assay [15] was 63.8 µM (inactive); in assay [16] it was > 100 µM (inactive); in assay [17], 61.9 µM (inactive); in [18] it was 76.4 µM (inactive).

In the case of `COC(=O)OC[C@H]1O[C@@H](n2cc(C)c(=O)[nH]c2=O)CC1OC(=O)OC` (stereo partly drawn), the GI50 in assay [1], in assay [2], in assay [3], in [4], in [5] and in assay [19] was > 100 µM (inactive) in each case. Further, the GI50 in assay [7], in assay [8], in [9], in assay [10], in assay [11] and in [12] was > 100 µM (inactive) in each case. The GI50 in [13] was > 100 µM (inactive); in assay [14], > 100 µM (inactive); in [15] it was > 100 µM (inactive); in assay [16] it was > 100 µM (inactive); in [17], 95.3 µM (inactive); in assay [18], > 100 µM (inactive).

Take `CS(=O)(=O)CC(=O)c1ccccc1`: the GI50 in [1], in [2], in assay [3], in [4], in assay [5] and in assay [19] was > 100 µM (inactive) each time. Also, the GI50 in [7], in [8], in assay [9], in assay [10], in assay [11] and in assay [12] was > 100 µM (inactive) in each case. For the same compound, the GI50 in assay [13] is > 100 µM (inactive); in assay [14] it was > 100 µM (inactive); in [15], > 100 µM (inactive); in assay [16], > 100 µM (inactive); in assay [17], 38.8 µM (inactive); in assay [18], > 100 µM (inactive).

As to `CCOC(=O)c1c(C)[n+]([O-])c2cc(Cl)c(Cl)cc2[n+]1[O-]`, the GI50 was 20.3 µM (inactive) in assay [1]; 14.6 µM (inactive) in assay [2]; 19.8 µM (inactive) in [3]; 24.1 µM (inactive) in [4]; 13.7 µM (inactive) in assay [5]; < 0.01 µM (active) in assay [19]. Moreover, the GI50 was 3.54 µM (inactive) in assay [6]; 33.5 µM (inactive) in [7]; 24.1 µM (inactive) in assay [8]; 7.89 µM (inactive) in assay [9]; 15.3 µM (inactive) in assay [10]; 16.2 µM (inactive) in assay [11]. In addition, the GI50 in [12] is 23.8 µM (inactive); in assay [13], 26.9 µM (inactive); in assay [14], 24.5 µM (inactive); in [15], 26.1 µM (inactive); in assay [16], 29.4 µM (inactive); in assay [18] it was 15.8 µM (inactive).

Turning to `CCOC(=O)c1sc(N)nc1N1CCCC1`, the GI50 in assay [1], in assay [2], in assay [3], in [4], in assay [19] and in [6] was > 100 µM (inactive) throughout. Besides, the GI50 in assay [7], in assay [8], in assay [9], in assay [10], in [11] and in assay [12] was > 100 µM (inactive) in each case. In addition, the GI50 in [13], in assay [15], in [16], in assay [17] and in assay [18] was > 100 µM (inactive) each time.

In the case of `CCOC1NC(=O)Oc2cc3ccccc3cc21` (stereo not drawn), the GI50 in assay [2] was > 100 µM (inactive); in assay [3] it was 44.1 µM (inactive); in assay [4], > 100 µM (inactive); in assay [5], > 100 µM (inactive); in assay [19] it was 31.3 µM (inactive); in assay [6], 29.6 µM (inactive). The GI50 in [7] is > 100 µM (inactive); in assay [8] it was > 100 µM (inactive); in [9], > 100 µM (inactive); in assay [10], 67.1 µM (inactive); in assay [11], 34.8 µM (inactive); in assay [12], 99.5 µM (inactive). Besides, the GI50 in assay [13] is 29 µM (inactive); in assay [14], > 100 µM (inactive); in assay [15], 68.1 µM (inactive); in [16], > 100 µM (inactive); in assay [17], 60.5 µM (inactive); in [18] it was 42.6 µM (inactive).

`c1ccc2c(c1)-c1nc3ccccc3cc1C2N1CCOCC1` (stereo not drawn): the GI50 in [1] is > 100 µM (inactive); in assay [2], > 100 µM (inactive); in assay [3], > 100 µM (inactive); in [4] it was 63.1 µM (inactive); in [19], 34.5 µM (inactive); in [7], 92.5 µM (inactive). Also, the GI50 is 46.6 µM (inactive) in assay [8]; > 100 µM (inactive) in [9]; > 100 µM (inactive) in [10]; 57.9 µM (inactive) in [11]; 81.3 µM (inactive) in assay [12]; > 100 µM (inactive) in assay [13]. In addition, the GI50 is 61.2 µM (inactive) in assay [14], > 100 µM (inactive) in assay [16], > 100 µM (inactive) in [17] and 97.5 µM (inactive) in assay [18].
